# From doi:10.1101/2024.08.19.608619, “Discovery of potent SARS-CoV-2 nsp3 macrodomain inhibitors uncovers lack of translation to cellular antiviral response” (bioRxiv, 2024)
# Like-named read-outs stand apart in the source and are kept apart here.
# Experiments:
# SARS-CoV-2 nsp3-mac1 [1] = target: T1, SARS-CoV-2 nsp3-mac1 (Severe acute respiratory syndrome coronavirus 2, UniProt P0DTD1); assay: biochemical; assay type: biochemical; details: SARS-CoV-2 nsp3 macrodomain TR-FRET single point
# SARS-CoV-2 nsp3-mac1 [2] = target: T1, SARS-CoV-2 nsp3-mac1; assay: biochemical; design: SARS-CoV-2 nsp3 macrodomain TR-FRET single point, per cent inhibition, n=2
# [3] = read-out: perc_inhibition_mean, batch_name=ASAP-0000352-001
# [4] = read-out: perc_inhibition_mean, batch_name=ASAP-0000353-001
# [5] = read-out: perc_inhibition_mean, batch_name=ASAP-0000354-001
# [6] = read-out: perc_inhibition_mean, batch_name=ASAP-0000355-001
# [7] = read-out: perc_inhibition_mean, batch_name=ASAP-0000356-001
# [8] = read-out: perc_inhibition_mean, batch_name=ASAP-0000357-001
# [9] = read-out: perc_inhibition_mean, batch_name=ASAP-0000358-001
# [10] = read-out: perc_inhibition_mean, batch_name=ASAP-0000359-001
# [11] = read-out: perc_inhibition_mean, batch_name=ASAP-0000360-001
# [12] = read-out: perc_inhibition_mean, batch_name=ASAP-0000361-001
# [13] = read-out: perc_inhibition_mean, batch_name=ASAP-0000363-001
# [14] = read-out: perc_inhibition_mean, batch_name=ASAP-0000364-001
# [15] = read-out: perc_inhibition_mean, batch_name=ASAP-0000365-001
# [16] = read-out: perc_inhibition_mean, batch_name=ASAP-0000366-001
# [17] = read-out: perc_inhibition_mean, batch_name=ASAP-0000380-001
# [18] = read-out: perc_inhibition_mean, batch_name=ASAP-0000381-001
smiles,measurement,setting,value
O=C(NCCn1cncn1)c1cnn2ccc(C3CCN(C(=O)c4ccccc4)CC3)cc12 [ASAP-0000352],perc_inhibition_mean,SARS-CoV-2 nsp3-mac1 [1]; concentration 49.75 uM,-3.7%
same,perc_inhibition_mean,"SARS-CoV-2 nsp3-mac1 [1]; concentration 99.5 uM, n=2",-2.566%
same,inhibition at 49.75 µM,SARS-CoV-2 nsp3-mac1 [2]; [3],-3.7%
same,inhibition at 99.5 µM,SARS-CoV-2 nsp3-mac1 [2]; [3],-2.57%
O=C(NC[C@@H]1CCCCN1)c1cnn2ccc(C3CCN(C(=O)c4ccccc4)CC3)cc12 [ASAP-0000353],perc_inhibition_mean,SARS-CoV-2 nsp3-mac1 [1]; concentration 49.75 uM,-5.92%
same,perc_inhibition_mean,SARS-CoV-2 nsp3-mac1 [1]; concentration 99.5 uM,-2.573%
same,inhibition at 49.75 µM,SARS-CoV-2 nsp3-mac1 [2]; [4],-5.92%
same,inhibition at 99.5 µM,SARS-CoV-2 nsp3-mac1 [2]; [4],-2.57%
Cc1ccc(NC(=O)c2cnn3ccc(C4CCN(C(=O)c5ccccc5)CC4)cc23)cc1C(=O)O [ASAP-0000354],perc_inhibition_mean,SARS-CoV-2 nsp3-mac1 [1]; concentration 49.75 uM,-1.047%
same,perc_inhibition_mean,SARS-CoV-2 nsp3-mac1 [1]; concentration 99.5 uM,-0.624%
same,inhibition at 49.75 µM,SARS-CoV-2 nsp3-mac1 [2]; [5],-1.05%
same,inhibition at 99.5 µM,SARS-CoV-2 nsp3-mac1 [2]; [5],-0.624%
O=C(NCc1ncccn1)c1cnn2ccc(C3CCN(C(=O)c4ccccc4)CC3)cc12 [ASAP-0000355],perc_inhibition_mean,SARS-CoV-2 nsp3-mac1 [1]; concentration 49.75 uM,-0.074%
same,perc_inhibition_mean,SARS-CoV-2 nsp3-mac1 [1]; concentration 99.5 uM,-6.657%
same,inhibition at 49.75 µM,SARS-CoV-2 nsp3-mac1 [2]; [6],-0.074%
same,inhibition at 99.5 µM,SARS-CoV-2 nsp3-mac1 [2]; [6],-6.66%
NC1(C(=O)N(CCC(=O)N2CCNCC2)Cc2cccc(Cl)c2)CC(F)(F)C1 [ASAP-0000356],perc_inhibition_mean,SARS-CoV-2 nsp3-mac1 [1]; concentration 49.75 uM,-3.48%
same,perc_inhibition_mean,SARS-CoV-2 nsp3-mac1 [1]; concentration 99.5 uM,-1.174%
same,inhibition at 49.75 µM,SARS-CoV-2 nsp3-mac1 [2]; [7],-3.48%
same,inhibition at 99.5 µM,SARS-CoV-2 nsp3-mac1 [2]; [7],-1.17%
O=C1CCC[C@@H](C(=O)N(CCC(=O)N2CCNCC2)Cc2cccc(Cl)c2)N1 [ASAP-0000357],perc_inhibition_mean,SARS-CoV-2 nsp3-mac1 [1]; concentration 49.75 uM,2.418%
same,perc_inhibition_mean,SARS-CoV-2 nsp3-mac1 [1]; concentration 99.5 uM,-3.31%
same,inhibition at 49.75 µM,SARS-CoV-2 nsp3-mac1 [2]; [8],2.42%
same,inhibition at 99.5 µM,SARS-CoV-2 nsp3-mac1 [2]; [8],-3.31%
Cc1ccc(C(=O)N2CCC(c3ccn4ncc(C(=O)N5CCCCC5)c4c3)CC2)c(=O)[nH]1 [ASAP-0000358],perc_inhibition_mean,SARS-CoV-2 nsp3-mac1 [1]; concentration 49.75 uM,3.307%
same,perc_inhibition_mean,SARS-CoV-2 nsp3-mac1 [1]; concentration 99.5 uM,3.662%
same,inhibition at 49.75 µM,SARS-CoV-2 nsp3-mac1 [2]; [9],3.31%
same,inhibition at 99.5 µM,SARS-CoV-2 nsp3-mac1 [2]; [9],3.66%
O=C(Cc1ccns1)Nc1ncnc2[nH]cnc12 [ASAP-0000359],perc_inhibition_mean,SARS-CoV-2 nsp3-mac1 [1]; concentration 49.75 uM,-9.501%
same,perc_inhibition_mean,SARS-CoV-2 nsp3-mac1 [1]; concentration 99.5 uM,-3.24%
same,inhibition at 49.75 µM,SARS-CoV-2 nsp3-mac1 [2]; [10],-9.5%
same,inhibition at 99.5 µM,SARS-CoV-2 nsp3-mac1 [2]; [10],-3.24%
O=C(O)c1ccsc1C(=O)N1CCC(c2ccn3ncc(C(=O)N4CCCCC4)c3c2)CC1 [ASAP-0000360],perc_inhibition_mean,SARS-CoV-2 nsp3-mac1 [1]; concentration 49.75 uM,45.022%
same,perc_inhibition_mean,SARS-CoV-2 nsp3-mac1 [1]; concentration 99.5 uM,61.208%
same,inhibition at 49.75 µM,SARS-CoV-2 nsp3-mac1 [2]; [11],45%
same,inhibition at 99.5 µM,SARS-CoV-2 nsp3-mac1 [2]; [11],61.2%
CCN(Cc1nnc(C)o1)C(=O)c1cnn2ccc(C3CCN(C(=O)c4ccccc4)CC3)cc12 [ASAP-0000361],perc_inhibition_mean,SARS-CoV-2 nsp3-mac1 [1]; concentration 49.75 uM,10.027%
same,perc_inhibition_mean,SARS-CoV-2 nsp3-mac1 [1]; concentration 99.5 uM,-5.306%
same,inhibition at 49.75 µM,SARS-CoV-2 nsp3-mac1 [2]; [12],10%
same,inhibition at 99.5 µM,SARS-CoV-2 nsp3-mac1 [2]; [12],-5.31%
Oc1ccccc1CNc1ncnc2cccnc12 [ASAP-0000363],perc_inhibition_mean,SARS-CoV-2 nsp3-mac1 [1]; concentration 49.75 uM,-1.837%
same,perc_inhibition_mean,SARS-CoV-2 nsp3-mac1 [1]; concentration 99.5 uM,-0.535%
same,inhibition at 49.75 µM,SARS-CoV-2 nsp3-mac1 [2]; [13],-1.84%
same,inhibition at 99.5 µM,SARS-CoV-2 nsp3-mac1 [2]; [13],-0.535%
O=C(c1ccnnc1O)N1CCC(c2ccn3ncc(C(=O)N4CCCCC4)c3c2)CC1 [ASAP-0000364],perc_inhibition_mean,SARS-CoV-2 nsp3-mac1 [1]; concentration 49.75 uM,-7.591%
same,perc_inhibition_mean,SARS-CoV-2 nsp3-mac1 [1]; concentration 99.5 uM,10.21%
same,inhibition at 49.75 µM,SARS-CoV-2 nsp3-mac1 [2]; [14],-7.59%
same,inhibition at 99.5 µM,SARS-CoV-2 nsp3-mac1 [2]; [14],10.2%
Cc1ccc2ccccc2c1-c1ncnc2[nH]ccc12 [ASAP-0000365],perc_inhibition_mean,SARS-CoV-2 nsp3-mac1 [1]; concentration 49.75 uM,-5.321%
same,perc_inhibition_mean,SARS-CoV-2 nsp3-mac1 [1]; concentration 99.5 uM,-9.099%
same,inhibition at 49.75 µM,SARS-CoV-2 nsp3-mac1 [2]; [15],-5.32%
same,inhibition at 99.5 µM,SARS-CoV-2 nsp3-mac1 [2]; [15],-9.1%
COc1cc(CC(=O)Nc2cc3c(=O)nc[nH]c3cn2)on1 [ASAP-0000366],perc_inhibition_mean,SARS-CoV-2 nsp3-mac1 [1]; concentration 49.75 uM,-4.691%
same,perc_inhibition_mean,SARS-CoV-2 nsp3-mac1 [1]; concentration 99.5 uM,-3.481%
same,inhibition at 49.75 µM,SARS-CoV-2 nsp3-mac1 [2]; [16],-4.69%
same,inhibition at 99.5 µM,SARS-CoV-2 nsp3-mac1 [2]; [16],-3.48%
Cn1cc([C@@H](Nc2ncnc3[nH]ccc23)c2ccccc2)cn1 [ASAP-0000380],perc_inhibition_mean,SARS-CoV-2 nsp3-mac1 [1]; concentration 49.75 uM,19.983%
same,perc_inhibition_mean,SARS-CoV-2 nsp3-mac1 [1]; concentration 99.5 uM,39.262%
same,inhibition at 49.75 µM,SARS-CoV-2 nsp3-mac1 [2]; [17],20%
same,inhibition at 99.5 µM,SARS-CoV-2 nsp3-mac1 [2]; [17],39.3%
Cc1nn(C)c(C)c1[C@H]1COCCN1c1ncnc2[nH]ccc12 [ASAP-0000381],perc_inhibition_mean,SARS-CoV-2 nsp3-mac1 [1]; concentration 49.75 uM,-0.137%
same,perc_inhibition_mean,SARS-CoV-2 nsp3-mac1 [1]; concentration 99.5 uM,-0.128%
same,inhibition at 49.75 µM,SARS-CoV-2 nsp3-mac1 [2]; [18],-0.137%
same,inhibition at 99.5 µM,SARS-CoV-2 nsp3-mac1 [2]; [18],-0.128%
